# Legend:
# [1] = Drug uptake in Sprague Dawley rat brain at 3 mg/kg, po by UPLC-MS/MS analysis; format: ADME, organism-based; conditions: in vivo
# [2] = test system: Rattus norvegicus; test: In vivo inhibition of BACE1 in Sprague Dawley rat assessed as reduction in amyloidbeta 40 level in brain at 3 mg/kg, po by ELISA relative to control; format: functional
# [3] = target: T1, P-glycoprotein (ABCB1) (Homo sapiens, UniProt P08183); test: Substrate activity at P-glycoprotein (unknown origin) in MDCK-MDR1cells assessed as efflux ratio incubated over 60 mins by LC-MS/MS analysis; conditions: MDCK-MDR1
# [4] = Dissociation constant, pKa of the compound; format: physicochemical
# [5] = target: T2, Beta-secretase 1 (Homo sapiens, UniProt P56817); test: Inhibition of BACE1 (unknown origin) expressed in CHO-K1 cells using Biotin-GLTNIKTEEISEISYAEVEFR-C[Oregon Green]KK-OH as substrate incubated for 3 hrs by fluorescence polarization
# [6] = target: T2, Beta-secretase 1; test: Inhibition of BACE1 in human H4 cells transfected with APP695 assessed as […] incubated for 18 hrs by ELISA; format: cell-based
# [7] = target: T1, P-glycoprotein (ABCB1); test: Substrate activity at P-glycoprotein (unknown origin) in MDCK-MDR1 cells assessed as efflux ratio; format: ADME, cell-based
# [8] = target: Voltage-gated inwardly rectifying potassium channel KCNH2 (Homo sapiens, UniProt Q12809); test: Inhibition of human ERG expressed in CHO cells at holding potential of -80 mV by patch clamp method; format: cell-based
# [9] = test system: Mus musculus; test: In vivo inhibition of BACE1 in C57B1/6J mouse assessed as reduction in amyloidbeta 40 level in brain at 30 mg/kg, po measured at 4 hrs post dose by AlphaLISA relative to control; format: functional
# [10] = test system: Homo sapiens; test: In vivo inhibition of BACE1 in human assessed as reduction in amyloidbeta40 level in CSF at 150 mg administered once daily for 14 days relative to baseline; format: functional
# [11] = test system: Homo sapiens; test: In vivo inhibition of BACE1 in human assessed as reduction in amyloidbeta40 level in CSF at 50 mg administered once daily for 14 days relative to baseline; format: functional
# [12] = test system: Homo sapiens; test: In vivo inhibition of BACE1 in human assessed as reduction in amyloidbeta40 level in CSF at 15 mg administered once daily for 14 days relative to baseline; format: functional
# [13] = target: Beta-secretase 1 (Cricetulus griseus, UniProt G3IAK4); test: Inhibition of BACE1 in CHO cells expressing human APP assessed as reduction in amyloidbeta (1 to 40 residues) level incubated for 24 hrs by immunoassay method; format: cell-based
# [14] = target: T2, Beta-secretase 1; test: Inhibition of BACE1 in human SK-N-BE(2) cells expressing human APP695 assessed as reduction in amyloidbeta (1 to 42 residues) level incubated for 18 hrs by sandwich ELISA; format: cell-based
# [15] = test system: Canis familiaris; test: In vivo inhibition of BACE1 in Beagle dog assessed as reduction in amyloidbeta (1 to 42 residues) at 0.16 mg/kg, po measured at 8 hrs post dose relative to baseline; format: functional; conditions: Canis lupus familiaris
# [16] = test system: Canis familiaris; test: In vivo inhibition of BACE1 in Beagle dog assessed as reduction in amyloidbeta (1 to 42 residues) at 0.31 mg/kg, po measured at 8 hrs post dose relative to baseline; format: functional; conditions: Canis lupus familiaris
# [17] = target: T3, Beta-secretase 2 (Homo sapiens, UniProt Q9Y5Z0); test: Inhibition of BACE2 (unknown origin) incubated for 450 mins using APP swedish mutant as substrate by FRET assay
# T3 sequence (Q9Y5Z0 whole entry): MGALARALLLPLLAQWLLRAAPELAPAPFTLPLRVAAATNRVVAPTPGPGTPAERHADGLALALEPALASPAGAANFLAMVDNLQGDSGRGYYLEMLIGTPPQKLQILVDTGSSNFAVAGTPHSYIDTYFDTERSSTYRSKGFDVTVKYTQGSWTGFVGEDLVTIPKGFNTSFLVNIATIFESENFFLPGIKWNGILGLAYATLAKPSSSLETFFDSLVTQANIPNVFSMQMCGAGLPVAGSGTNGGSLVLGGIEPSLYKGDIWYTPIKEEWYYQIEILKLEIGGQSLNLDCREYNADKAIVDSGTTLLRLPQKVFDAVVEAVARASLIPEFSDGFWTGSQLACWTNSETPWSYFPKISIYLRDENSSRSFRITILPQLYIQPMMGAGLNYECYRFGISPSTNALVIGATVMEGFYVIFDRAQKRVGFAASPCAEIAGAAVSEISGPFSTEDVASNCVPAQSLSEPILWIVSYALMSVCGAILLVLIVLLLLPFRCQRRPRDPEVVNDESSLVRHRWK
# [18] = test system: Canis familiaris; test: In vivo inhibition of BACE1 in Beagle dog assessed as reduction in amyloidbeta (1 to 42 residues) at 1.25 mg/kg, po measured at 8 hrs post dose relative to baseline; format: functional; conditions: Canis lupus familiaris
# [19] = target: T2, Beta-secretase 1; test: Inhibition of BACE1 (unknown origin) incubated for 120 mins using APP swedish mutant as substrate by FRET assay
# [20] = target: T2, Beta-secretase 1; test: Inhibition of human BACE1 using biotin-XSEVNLDAEFRHDSGC-Eu as substrate incubated for 3 hrs by fluorescence method
# [21] = target: T3, Beta-secretase 2; test: Inhibition of human BACE2 preincubated for 30 mins followed by QSY7- EISEVNLDAEFC-Eu-amide substrate addition and measured after […] by HTRF assay
# [22] = test system: Rattus norvegicus; test: In vivo inhibition of BACE1 in CD-IGS rat assessed as reduction in amyloidbeta 40 level in CSF at 10 mg/kg, po measured at 3 hrs post dose by sandwich ELISA relative to control; format: functional
# [23] = target: T2, Beta-secretase 1; test: Inhibition of human BACE1 catalytic domain preincubated for 30 mins followed by QSY7-EISEVNLDAEFC-Europium-amide substrate addition and measured after […] by HTRF assay
# [24] = test system: Homo sapiens; test: In vivo inhibition of BACE1 in human assessed as reduction in amyloidbeta40 level in CSF at 50 mg relative to control; format: functional
# [25] = test system: Homo sapiens; test: In vivo inhibition of BACE1 in human assessed as reduction in amyloidbeta40 level in CSF at 200 mg relative to control; format: functional
# [26] = test system: Homo sapiens; test: In vivo inhibition of BACE1 in human assessed as reduction in amyloidbeta40 level in CSF at 25 mg relative to control; format: functional
# [27] = test system: Homo sapiens; test: In vivo inhibition of BACE1 in human assessed as reduction in amyloidbeta40 level in CSF at 100 mg relative to control; format: functional
# [28] = target: T2, Beta-secretase 1; test: Inhibition of BACE1 (unknown origin) by cell-based assay
# T2 sequence (P56817 whole entry): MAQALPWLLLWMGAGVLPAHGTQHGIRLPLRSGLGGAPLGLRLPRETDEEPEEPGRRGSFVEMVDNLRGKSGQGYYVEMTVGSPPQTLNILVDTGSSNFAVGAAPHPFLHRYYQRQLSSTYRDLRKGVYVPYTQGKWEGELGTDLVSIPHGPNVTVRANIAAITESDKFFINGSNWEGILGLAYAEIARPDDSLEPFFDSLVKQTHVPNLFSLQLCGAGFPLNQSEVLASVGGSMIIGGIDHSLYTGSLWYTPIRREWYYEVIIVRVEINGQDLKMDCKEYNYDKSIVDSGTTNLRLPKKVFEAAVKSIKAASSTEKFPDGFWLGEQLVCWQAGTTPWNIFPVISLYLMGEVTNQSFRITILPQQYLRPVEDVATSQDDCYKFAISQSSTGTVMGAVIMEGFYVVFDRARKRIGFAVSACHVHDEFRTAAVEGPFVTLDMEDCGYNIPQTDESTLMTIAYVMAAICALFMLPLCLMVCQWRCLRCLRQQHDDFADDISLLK
# T1 sequence (P08183 whole entry): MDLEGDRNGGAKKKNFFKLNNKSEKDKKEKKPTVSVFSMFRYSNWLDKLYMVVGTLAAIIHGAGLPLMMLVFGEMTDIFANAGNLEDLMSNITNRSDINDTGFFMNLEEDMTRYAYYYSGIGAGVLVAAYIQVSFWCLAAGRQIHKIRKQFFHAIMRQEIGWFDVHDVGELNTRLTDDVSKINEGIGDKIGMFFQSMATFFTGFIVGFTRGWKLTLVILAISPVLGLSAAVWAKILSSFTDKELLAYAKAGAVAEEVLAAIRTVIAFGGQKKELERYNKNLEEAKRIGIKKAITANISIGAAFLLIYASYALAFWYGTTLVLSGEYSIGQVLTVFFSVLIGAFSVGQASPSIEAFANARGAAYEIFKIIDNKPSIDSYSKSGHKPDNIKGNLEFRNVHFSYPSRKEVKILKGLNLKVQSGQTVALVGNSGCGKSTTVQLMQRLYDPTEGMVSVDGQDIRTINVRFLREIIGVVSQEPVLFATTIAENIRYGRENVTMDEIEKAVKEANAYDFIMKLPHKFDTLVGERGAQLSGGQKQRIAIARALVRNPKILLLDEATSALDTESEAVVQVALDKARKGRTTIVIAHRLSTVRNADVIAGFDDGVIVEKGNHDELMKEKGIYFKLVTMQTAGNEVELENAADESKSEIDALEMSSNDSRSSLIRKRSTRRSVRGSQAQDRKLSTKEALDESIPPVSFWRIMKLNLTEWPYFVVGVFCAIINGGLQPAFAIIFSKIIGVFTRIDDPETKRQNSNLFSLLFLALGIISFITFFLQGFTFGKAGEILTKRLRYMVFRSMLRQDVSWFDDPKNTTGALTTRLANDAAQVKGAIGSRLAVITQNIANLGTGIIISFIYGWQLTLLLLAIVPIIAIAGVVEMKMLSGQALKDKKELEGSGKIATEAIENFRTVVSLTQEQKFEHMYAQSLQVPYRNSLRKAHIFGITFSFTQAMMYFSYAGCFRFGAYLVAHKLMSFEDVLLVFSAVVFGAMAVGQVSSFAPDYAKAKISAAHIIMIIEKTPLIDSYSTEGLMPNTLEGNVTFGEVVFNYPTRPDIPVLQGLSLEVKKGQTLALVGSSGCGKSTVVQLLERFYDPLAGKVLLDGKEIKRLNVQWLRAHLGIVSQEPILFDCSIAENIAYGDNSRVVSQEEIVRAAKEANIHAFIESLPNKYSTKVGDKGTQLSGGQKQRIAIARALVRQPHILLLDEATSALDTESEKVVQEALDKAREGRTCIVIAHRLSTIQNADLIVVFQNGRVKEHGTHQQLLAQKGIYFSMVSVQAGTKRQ
# Voltage-gated inwardly rectifying potassium channel KCNH2, sequence (Q12809 whole entry): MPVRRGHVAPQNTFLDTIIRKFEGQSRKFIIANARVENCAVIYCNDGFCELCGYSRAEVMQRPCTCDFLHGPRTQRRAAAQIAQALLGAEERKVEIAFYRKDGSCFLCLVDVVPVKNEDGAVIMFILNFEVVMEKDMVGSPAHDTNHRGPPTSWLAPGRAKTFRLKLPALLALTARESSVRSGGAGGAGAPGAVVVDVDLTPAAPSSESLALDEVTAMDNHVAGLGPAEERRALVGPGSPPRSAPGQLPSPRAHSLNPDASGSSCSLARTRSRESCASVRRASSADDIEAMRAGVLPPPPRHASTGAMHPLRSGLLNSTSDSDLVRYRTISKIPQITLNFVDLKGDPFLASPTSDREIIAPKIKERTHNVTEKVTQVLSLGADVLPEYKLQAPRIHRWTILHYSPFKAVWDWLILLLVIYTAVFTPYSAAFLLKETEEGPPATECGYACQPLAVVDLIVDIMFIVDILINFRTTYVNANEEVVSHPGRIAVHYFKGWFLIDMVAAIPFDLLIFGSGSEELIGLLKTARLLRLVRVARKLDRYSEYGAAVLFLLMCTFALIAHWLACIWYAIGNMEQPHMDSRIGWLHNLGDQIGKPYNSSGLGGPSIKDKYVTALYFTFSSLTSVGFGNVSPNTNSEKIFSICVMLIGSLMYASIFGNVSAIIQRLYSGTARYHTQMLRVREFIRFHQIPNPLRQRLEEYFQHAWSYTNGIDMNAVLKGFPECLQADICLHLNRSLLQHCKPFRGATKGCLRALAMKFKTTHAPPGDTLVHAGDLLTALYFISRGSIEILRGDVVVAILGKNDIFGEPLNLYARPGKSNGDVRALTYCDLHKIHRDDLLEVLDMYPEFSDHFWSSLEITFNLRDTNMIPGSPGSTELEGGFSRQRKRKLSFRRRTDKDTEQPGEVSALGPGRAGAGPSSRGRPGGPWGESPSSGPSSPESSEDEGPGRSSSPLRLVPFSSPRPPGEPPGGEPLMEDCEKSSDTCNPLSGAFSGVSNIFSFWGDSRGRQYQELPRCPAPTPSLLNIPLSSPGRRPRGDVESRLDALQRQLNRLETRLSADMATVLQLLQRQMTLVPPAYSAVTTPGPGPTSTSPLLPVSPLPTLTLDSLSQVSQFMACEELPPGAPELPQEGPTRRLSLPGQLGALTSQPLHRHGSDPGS
# Beta-secretase 1 (Cricetulus griseus, UniProt G3IAK4), sequence (G3IAK4 whole entry, the tested form may be a part): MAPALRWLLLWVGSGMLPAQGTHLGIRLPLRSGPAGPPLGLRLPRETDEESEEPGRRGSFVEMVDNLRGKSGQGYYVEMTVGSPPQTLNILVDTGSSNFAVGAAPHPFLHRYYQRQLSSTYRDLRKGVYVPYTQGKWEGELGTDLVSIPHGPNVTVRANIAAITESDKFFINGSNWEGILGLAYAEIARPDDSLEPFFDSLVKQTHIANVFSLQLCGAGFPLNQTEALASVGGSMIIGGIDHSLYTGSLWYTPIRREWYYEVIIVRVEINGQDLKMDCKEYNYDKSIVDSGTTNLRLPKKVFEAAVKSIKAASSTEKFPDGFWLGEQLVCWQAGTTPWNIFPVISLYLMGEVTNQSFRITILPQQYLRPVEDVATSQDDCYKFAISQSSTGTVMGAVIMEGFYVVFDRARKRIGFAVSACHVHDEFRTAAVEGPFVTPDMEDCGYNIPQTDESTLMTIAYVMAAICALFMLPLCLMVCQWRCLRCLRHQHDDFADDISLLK
compound,measurement,setting,value
[2H]C([2H])([2H])Oc1cnc(C(=O)Nc2ccc(F)c([C@@]3(C)N=C(N)[C@@](C)(F)C[C@@H]3F)c2)cn1,Drug uptake,[1],610 ng/g
same,inhibition in vivo at 3 mg/kg,[2],52%
same,efflux ratio at 1 h,[3],0.85
C[C@H]1C[C@H]2CSC(N)=N[C@@]2(c2ncc(NC(=O)c3ccc(OC(F)F)cn3)s2)CO1,pKa,[4],7
same,IC50,[5],> 100000 nM
same,IC50,[6],13600 nM
same,efflux ratio,[7],7
same,IC50,[8],12000 nM
Cc1cc(C#N)cnc1C(=O)Nc1ccc(F)c([C@@]2(C)N=C(N)C(C)(C)[S@@]3(=O)=NCC[C@@H]23)n1,inhibition in vivo at 30 mg/kg,[9],60%
CC#Cc1cncc(-c2ccc3c(c2)[C@]2(N=C(C)C(N)=N2)[C@]2(CC[C@@H](OC)CC2)C3)c1,inhibition (INH),[10],90%
same,inhibition (INH),[11],76%
same,inhibition (INH),[12],52%
C[C@]1(c2nc(NC(=O)c3ncc(C#N)cc3Cl)ccc2F)N=C(N)OCC1(F)F,IC50,[13],8 nM
C[C@@]1(S(C)(=O)=O)CC[C@@](CF)(c2cc(NC(=O)c3ccc(OCF)cn3)ccc2F)N=C1N,IC50,[14],1.6 nM
same,inhibition in vivo at 0.16 mg/kg,[15],71%
same,inhibition in vivo at 0.31 mg/kg,[16],78%
same,IC50,[17],16.6 nM
same,inhibition in vivo at 1.25 mg/kg,[18],89%
same,IC50,[19],2.2 nM
CC#CC(=O)Nc1ccc(F)c(C2(C)Cc3c(F)cncc3C(N)=N2)c1 (stereo not given),IC50,[20],54 nM
COc1cnc2c(Nc3ccc(F)c([C@]4(C)CS(=O)(=O)N(C)C(N)=N4)c3)nccc2c1,Ki,[21],3.5 nM
same,inhibition in vivo at 10 mg/kg,[22],68%
same,Ki,[23],2.6 nM
C[C@H]1C[C@H]2CSC(N)=N[C@@]2(c2cc(NC(=O)c3ccc(OC(F)F)cn3)ccc2F)CO1,pKa,[4],8.3
same,IC50,[6],< 1 nM
C[C@H]1OC[C@]2(c3cc(NC(=O)c4cnc(C(F)F)cn4)ccc3F)N=C(N)SC[C@H]12 [ELENBECESTAT],inhibition (INH),[24],71%
same,inhibition (INH),[25],90%
same,inhibition (INH),[26],56%
same,inhibition (INH),[27],83%
same,IC50,[28],7 nM
